Laboratory results published in US12370200B2, “Pharmaceutical composition containing brexanolone, ganaxolone, or zuranolone, and use thereof” (Brii Biosciences, Inc., priority 2019, dated 2025).
In brackets after ≈: the same amount, converted by molar mass. Where two headings read alike, the source gives them in different places.

Legend:
[1] = human plasma, after oral administration; cited from earlier work
[2] = Solubility of brexanolone by visual assessment of dissolution in various solvents; format: physicochemical; conditions: for solubility / solubility at 1 h: thermodynamic from solid; for solubility at 1 h: 40° C. for 1 h
Protocol: Solubility of the supplied brexanolone was determined by visual assessment of dissolution in various solvents at RT (˜22° C.) and 40° C. Aliquots of solvent were added to a fixed amount of brexanolone (˜10 mg) at room temperature until the dissolution point or a maximum volume of 1.8 mL was reached. All samples were then heated to 40° C. for 1 h and dissolution was observed. As shown in Error!

## CC(=O)[C@H]1CC[C@H]2[C@@H]3CC[C@H]4C[C@](C)(O)CC[C@]4(C)[C@H]3CC[C@]12C [Ganaxolone, ganaxolone]
[1]
  half-life: approximately 20 hours

## CC(=O)[C@H]1CC[C@H]2[C@@H]3CC[C@H]4C[C@H](O)CC[C@]4(C)[C@H]3CC[C@]12C [brexanolone]
[2]; 22 °C, organic solvent or mixture, RT, in MeCN, IPE, MTBE, IPA, MeOH, IPA:water (9:1, v:v), toluene, DMSO, EtOAc (span over these solvents), read-out: moderate solubility at RT
  solubility: 6 to 52 mg/mL (≈ 18.8 to 163 mM)
[2]; 22 °C, organic solvent or mixture, RT, in THF and DCM, read-out: high solubility at RT
  solubility: > 96 mg/mL
[2]; organic solvent or mixture, solvent 2-Propanol (IPA)
  solubility at 1 h: > 19 mg/mL
[2]; organic solvent or mixture, solvent 2-Propanol (IPA), RT (~22° C.), read-out: Solubility at RT
  solubility: 19 to 49 mg/mL (≈ 59.7 to 154 mM)
[2]; organic solvent or mixture, solvent 2-Propanol:water (9:1, v:v)
  solubility at 1 h: > 20 mg/mL
[2]; organic solvent or mixture, solvent 2-Propanol:water (9:1, v:v), RT (~22° C.), read-out: Solubility at RT
  solubility: 20 to 51 mg/mL (≈ 62.8 to 160 mM)
[2]; organic solvent or mixture, solvent Acetonitrile (MeCN)
  solubility at 1 h: > 6 mg/mL
[2]; organic solvent or mixture, solvent Acetonitrile (MeCN), RT (~22° C.), read-out: Solubility at RT
  solubility: 6 to 10 mg/mL (≈ 18.8 to 31.4 mM)
[2]; organic solvent or mixture, solvent Dichloromethane (DCM)
  solubility at 1 h: > 108 mg/mL
[2]; organic solvent or mixture, solvent Dichloromethane (DCM), RT (~22° C.), read-out: Solubility at RT
  solubility: 108 to 432 mg/mL (≈ 339 to 1360 mM)
[2]; organic solvent or mixture, solvent Dimethyl sulfoxide (DMSO)
  solubility at 1 h: > 20 mg/mL
[2]; organic solvent or mixture, solvent Dimethyl sulfoxide (DMSO), RT (~22° C.), read-out: Solubility at RT
  solubility: 20 to 49 mg/mL (≈ 62.8 to 154 mM)
[2]; organic solvent or mixture, solvent Ethyl Acetate (EtOAc)
  solubility at 1 h: > 21 mg/mL
[2]; organic solvent or mixture, solvent Ethyl Acetate (EtOAc), RT (~22° C.), read-out: Solubility at RT
  solubility: 21 to 52 mg/mL (≈ 65.9 to 163 mM)
[2]; organic solvent or mixture, solvent Isopropyl ether (IPE)
  solubility at 1 h: > 6 mg/mL
[2]; organic solvent or mixture, solvent Isopropyl ether (IPE), RT (~22° C.), read-out: Solubility at RT
  solubility: 6 to 11 mg/mL (≈ 18.8 to 34.5 mM)
[2]; organic solvent or mixture, solvent Methanol (MeOH)
  solubility at 1 h: > 19 mg/mL
[2]; organic solvent or mixture, solvent Methanol (MeOH), RT (~22° C.), read-out: Solubility at RT
  solubility: 19 to 49 mg/mL (≈ 59.7 to 154 mM)
[2]; organic solvent or mixture, solvent Methyl t-butyl ether (MTBE)
  solubility at 1 h: > 10 mg/mL
[2]; organic solvent or mixture, solvent Methyl t-butyl ether (MTBE), RT (~22° C.), read-out: Solubility at RT
  solubility: 10 to 20 mg/mL (≈ 31.4 to 62.8 mM)
[2]; organic solvent or mixture, solvent Tetrahydrofuran (THF)
  solubility at 1 h: > 96 mg/mL
[2]; organic solvent or mixture, solvent Tetrahydrofuran (THF), RT (~22° C.), read-out: Solubility at RT
  solubility: 96 to 384 mg/mL (≈ 301 to 1210 mM)
[2]; organic solvent or mixture, solvent Toluene
  solubility at 1 h: > 20 mg/mL
[2]; organic solvent or mixture, solvent Toluene, RT (~22° C.), read-out: Solubility at RT
  solubility: 20 to 50 mg/mL (≈ 62.8 to 157 mM)
[2]; solvent Water, RT (~22° C.)
  Solubility at RT: <6 mg/mL
[2]; solvent Water
  solubility at 1 h: < 6 mg/mL
[2]; solvent Water, RT (~22° C.), read-out: Solubility at RT
  solubility: < 6 mg/mL
